The target of the assay is T1, Recombinant human HSD17B13 enzyme (Homo sapiens, UniProt Q7Z5P4).
T1 sequence (Q7Z5P4 20-300): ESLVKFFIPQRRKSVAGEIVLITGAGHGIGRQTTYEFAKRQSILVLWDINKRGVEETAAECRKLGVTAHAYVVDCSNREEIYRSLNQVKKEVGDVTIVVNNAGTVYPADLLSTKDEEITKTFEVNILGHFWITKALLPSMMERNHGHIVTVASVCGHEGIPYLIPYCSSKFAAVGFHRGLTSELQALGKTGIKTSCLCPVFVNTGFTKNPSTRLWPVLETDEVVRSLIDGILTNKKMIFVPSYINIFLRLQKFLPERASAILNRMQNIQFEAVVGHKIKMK
As to the kind of experiment: HSD17b13 NAD(P)H-Glo biochemical assay. The note with it: 50 μM estradiol, 1 mM NAD+, 37° C. for 3 hours; read-out: HSD17β13 IC50. A digest of the protocol: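 Enzyme preincubated with inhibitor 20 min at RT in 20 mM Tris pH7.4, 0.002% Tween-20, 0.02% BSA, then reacted 3 h at 37° C with 50 μM estradiol and 1 mM NAD+ (final). NADH formation read by NAD(P)H-Glo luminescence after 1 h at RT.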

Structures are written as SMILES. A value given as a limit tells only on which side of the number the result lay.

Turning to `Cn1nc(-c2cc(C(F)(F)F)c(F)c(O)c2F)c2cnc(N3CCN(S(C)(=O)=O)C[C@H]3Cc3ccccc3)nc21` [Compound 5, (R)-3-(6-(2-Benzyl-4-(methylsulfonyl)piperazin-1-yl)-1-methyl-1H-pyrazolo[3,4-d]pyrimidin-3-yl)-2,6-difluoro-5-(trifluoromethyl)phenol], the concentration for half-maximal inhibition (IC50) – broadly, the point on the concentration scale where inhibition reaches its midpoint – was ≤ 100 nM. In the case of `Cn1nc(-c2cc(F)c(F)c(O)c2F)c2cnc(N3CCN(S(C)(=O)=O)C[C@H]3Cc3ccccc3)nc21` [Compound 11.09, (R)-3-(6-(2-Benzyl-4-(methylsulfonyl)piperazin-1-yl)-1-methyl-1H-pyrazolo[3,4-d]pyrimidin-3-yl)-2,5,6-trifluorophenol], the IC50 was ≤ 100 nM.

Turning to `Cn1nc(-c2cc(C(F)(F)F)c(F)c(O)c2F)c2cnc(N3CCOCC3Cc3ccccc3)nc21` (centres unmarked) [Compound 5.03, 3-(6-(3-Benzylmorpholino)-1-methyl-1H-pyrazolo[3,4-d]pyrimidin-3-yl)-2,6-difluoro-5-(trifluoromethyl)phenol], the IC50 is ≤ 100 nM. The figure for `Cn1nc(-c2cc(C(F)(F)F)c(F)c(O)c2F)c2cnc(N3CCC[C@H]3Cc3ccccc3)nc21` [Compound 5.17, (S)-3-(6-(2-Benzylpyrrolidin-1-yl)-1-methyl-1H-pyrazolo[3,4-d]pyrimidin-3-yl)-2,6-difluoro-5-(trifluoromethyl)phenol] is ≤ 100 nM; for `Cn1nc(-c2cc(C(F)(F)F)c(F)c(O)c2F)c2cnc(N3CCO[C@@H](Cc4ccccc4)C3)nc21` [Compound 12, (S)-3-(6-(2-Benzylmorpholino)-1-methyl-1H-pyrazolo[3,4-d]pyrimidin-3-yl)-2,6-difluoro-5-(trifluoromethyl)phenol] it is ≤ 100 nM. With `CN(C)C(=O)N1CCN(c2ncc3c(-c4cc(C(F)(F)F)c(F)c(O)c4F)nn(C)c3n2)C(CC2CC2)C1` (centres unmarked) [Compound 11.21, 3-(Cyclopropylmethyl)-4-(3-(2,4-difluoro-3-hydroxy-5-(trifluoromethyl)phenyl)-1-methyl-1H-pyrazolo[3,4-d]pyrimidin-6-yl)-N,N-dimethylpiperazine-1-carboxamide] the figure was ≤ 100 nM.

As to `Cc1nn(-c2cc(C(F)(F)F)c(F)c(O)c2F)c2cnc(N3CCN(S(C)(=O)=O)[C@@H](Cc4ccccc4)C3)cc12` [Compound 2.10, (S)-3-(5-(3-Benzyl-4-(methylsulfonyl)piperazin-1-yl)-3-methyl-1H-pyrazolo[3,4-c]pyridin-1-yl)-2,6-difluoro-5-(trifluoromethyl)phenol], the IC50 is ≤ 100 nM.

As for `CC(=O)N1CCN(c2ncc3c(-c4cc(C(F)(F)F)c(F)c(O)c4F)nn(C)c3n2)C[C@@H]1Cc1ccccc1` [Compound 6.04, (S)-1-(2-Benzyl-4-(3-(2,4-difluoro-3-hydroxy-5-(trifluoromethyl)phenyl)-1-methyl-1H-pyrazolo[3,4-d]pyrimidin-6-yl)piperazin-1-yl)ethan-1-one], the IC50 is ≤ 100 nM. With `Cn1nc(-c2cc(C(F)(F)F)c(F)c(O)c2F)c2cnc(N3CCN(C(N)=O)CC3CC3CC3)nc21` (centres unmarked) [Compound 11.28, 3-(Cyclopropylmethyl)-4-(3-(2,4-difluoro-3-hydroxy-5-(trifluoromethyl)phenyl)-1-methyl-1H-pyrazolo[3,4-d]pyrimidin-6-yl)piperazine-1-carboxamide] the figure was ≤ 100 nM. Consider `CC(=O)N1CCN(c2ncc3c(-c4cc(C(F)(F)F)c(F)c(O)c4F)nn(C)c3n2)[C@H](Cc2ccccc2)C1` [Compound 6.02, (R)-1-(3-Benzyl-4-(3-(2,4-difluoro-3-hydroxy-5-(trifluoromethyl)phenyl)-1-methyl-1H-pyrazolo[3,4-d]pyrimidin-6-yl)piperazin-1-yl)ethan-1-one], for which the IC50 was ≤ 100 nM.

`CN(c1ncc2c(-c3cc(C(F)(F)F)c(F)c(O)c3F)nn(C)c2n1)C1CCCN(Cc2ccccc2)C1` (centres unmarked) [Compound 5.36, 3-(6-((1-Benzylpiperidin-3-yl)(methyl)amino)-1-methyl-1H-pyrazolo[3,4-d]pyrimidin-3-yl)-2,6-difluoro-5-(trifluoromethyl)phenol]: the IC50 is ≤ 100 nM. As to `Cn1nc(-c2cc(C(F)(F)F)c(F)c(O)c2F)c2cnc(N3CCC(O)(Cn4cccn4)CC3)nc21` [Compound 5.04, 4-((1H-Pyrazol-1-yl)methyl)-1-(3-(2,4-difluoro-3-hydroxy-5-(trifluoromethyl)phenyl)-1-methyl-1H-pyrazolo[3,4-d]pyrimidin-6-yl)piperidin-4-ol], the IC50 was ≤ 100 nM. Turning to `Cn1nc(-c2cc(C(F)(F)F)c(F)c(O)c2F)c2cnc(N3CCNC(=O)C3Cc3ccccc3)nc21` (centres unmarked) [Compound 5.13, 3-Benzyl-4-(3-(2,4-difluoro-3-hydroxy-5-(trifluoromethyl)phenyl)-1-methyl-1H-pyrazolo[3,4-d]pyrimidin-6-yl)piperazin-2-one], the 50% inhibitory concentration (IC50) was ≤ 100 nM.

As to `Cn1nc(-c2cc(C(F)(F)F)c(F)c(O)c2F)c2cnc(N3CCOC[C@H]3Cc3cccc(F)c3)nc21` [Compound 5.24, (R)-2,6-Difluoro-3-(6-(3-(3-fluorobenzyl)morpholino)-1-methyl-1H-pyrazolo[3,4-d]pyrimidin-3-yl)-5-(trifluoromethyl)phenol], the IC50 is ≤ 100 nM. With `CS(=O)(=O)N1CCN(c2ccc(-n3nnc4cc(F)c(O)c(F)c43)cc2)C[C@@H]1Cc1ccccc1` [Compound 1.02, (S)-1-(4-(3-Benzyl-4-(methylsulfonyl)piperazin-1-yl)phenyl)-5,7-difluoro-1H-benzo[d][1,2,3]triazol-6-ol] the figure was ≤ 100 nM.

Take `Cn1nc(-c2cc(C(F)(F)F)c(F)c(O)c2F)c2cnc(N3CCNC[C@H]3Cc3ccccc3)nc21` [Compound 5.31, (R)-3-(6-(2-Benzylpiperazin-1-yl)-1-methyl-1H-pyrazolo[3,4-d]pyrimidin-3-yl)-2,6-difluoro-5-(trifluoromethyl)phenol]: the IC50 is ≤ 100 nM. In the case of `CNc1nn(-c2cc(C(F)(F)F)c(F)c(O)c2F)c2cnc(N3CCN(S(C)(=O)=O)C[C@H]3Cc3ccccc3)cc12` [Compound 2.24, (R)-3-(5-(2-Benzyl-4-(methylsulfonyl)piperazin-1-yl)-3-(methylamino)-1H-pyrazolo[3,4-c]pyridin-1-yl)-2,6-difluoro-5-(trifluoromethyl)phenol], the IC50 was ≤ 100 nM.

Regarding `Cn1nc(-c2cc(C(F)(F)F)c(F)c(O)c2F)c2cnc(N3CCO[C@@H](Cc4ccc(S(N)(=O)=O)cc4)C3)nc21` [Compound 12.08, (S)-4-((4-(3-(2,4-Difluoro-3-hydroxy-5-(trifluoromethyl)phenyl)-1-methyl-1H-pyrazolo[3,4-d]pyrimidin-6-yl)morpholin-2-y)methyl)benzenesulfonamide], the IC50 was ≤ 100 nM.

Regarding `CN1CCN(c2ncc3c(-c4cc(C(F)(F)F)c(F)c(O)c4F)nn(C)c3n2)[C@H](Cc2ccccc2)C1` [Compound 5.26, (R)-3-(6-(2-Benzyl-4-methylpiperazin-1-yl)-1-methyl-1H-pyrazolo[3,4-d]pyrimidin-3-yl)-2,6-difluoro-5-(trifluoromethyl)phenol], the IC50 is ≤ 100 nM. With `CN(c1ncc2c(-c3cc(C(F)(F)F)c(F)c(O)c3F)nn(C)c2n1)C1(Cc2ccccc2)CCOCC1` [Compound 11.07, 3-(6-((4-Benzyltetrahydro-2H-pyran-4-yl)(methyl)amino)-1-methyl-1H-pyrazolo[3,4-d]pyrimidin-3-yl)-2,6-difluoro-5-(trifluoromethyl)phenol] the figure was ≤ 100 nM; with `Cn1nc(-c2cc(C(F)(F)F)c(F)c(O)c2F)c2cnc(N3CC[C@@H]3Cc3ccccc3)nc21` [Compound 15.11, (S)-3-(6-(2-Benzylazetidin-1-yl)-1-methyl-1H-pyrazolo[3,4-d]pyrimidin-3-yl)-2,6-difluoro-5-(trifluoromethyl)phenol], ≤ 100 nM. In the case of `Cc1nn(-c2cc(C(F)(F)F)c(F)c(O)c2F)c2cc(Cl)c(N3CCN(S(C)(=O)=O)C[C@H]3Cc3ccccc3)nc12` [Compound 2.34, (R)-3-(5-(2-Benzyl-4-(methylsulfonyl)piperazin-1-yl)-6-chloro-3-methyl-1H-pyrazolo[4,3-b]pyridin-1-yl)-2,6-difluoro-5-(trifluoromethyl)phenol], the IC50 is ≤ 100 nM.

In the case of `CN1CCN(c2ncc3c(-c4cc(C(F)(F)F)c(F)c(O)c4F)nn(C)c3n2)C(Cc2ccccc2)C1` (centres unmarked) [Compound 5.12, 3-(6-(2-Benzyl-4-methylpiperazin-1-yl)-1-methyl-1H-pyrazolo[3,4-d]pyrimidin-3-yl)-2,6-difluoro-5-(trifluoromethyl)phenol], the IC50 is ≤ 100 nM.

Turning to `Cc1nn(-c2cc(C(F)(F)F)c(F)c(O)c2F)c2cnc(N3CCN(S(C)(=O)=O)C[C@H]3Cc3ccccc3)nc12` [Compound 2, (R)-3-(5-(2-Benzyl-4-(methylsulfonyl)piperazin-1-yl)-3-methyl-1H-pyrazolo[4,3-d]pyrimidin-1-yl)-2,6-difluoro-5-(trifluoromethyl)phenol], the IC50 was ≤ 100 nM. With `Cc1nn(-c2cc(C(F)(F)F)c(F)c(O)c2F)c2cnc(N3CCN(S(C)(=O)=O)[C@H](Cc4ccccc4)C3)cc12` [Compound 2.07, (R)-3-(5-(3-Benzyl-4-(methylsulfonyl)piperazin-1-yl)-3-methyl-1H-pyrazolo[3,4-c]pyridin-1-yl)-2,6-difluoro-5-(trifluoromethyl)phenol] the figure was ≤ 100 nM; with `Cn1nc(-c2cc(F)c(Cl)c(O)c2F)c2cnc(N3CCN(S(C)(=O)=O)C[C@H]3Cc3ccccc3)nc21` [Compound 11.10, (R)-3-(6-(2-Benzyl-4-(methylsulfonyl)piperazin-1-yl)-1-methyl-1H-pyrazolo[3,4-d]pyrimidin-3-yl)-6-chloro-2,5-difluorophenol], ≤ 100 nM.

These data come from US20240368127A1, “HSD17B13 INHIBITORS AND USES THEREOF” (FL2022-001, Inc., priority 2021, published 2024).
